Consider 1 substance from US20070077583A1, “Alpha enolase-directed diagnostics and therapeutics for cancer and chemotherapeutic drug resistance” (Aurelium BioPharma, Inc., priority 2005, published 2007).

Series [1] relates to MDA-435 breast cancer cells. In words: BrdU incorporation DNA synthesis, MDA-435. Particulars: MDA-435 cells. It is filed as cell-based, human. From the text: (§1) The effect of Eno-1 siRNA silencing on tumor cell growth was even more dramatic in the MDA-435 breast cancer cells, where the viability in cells that were transfected with Eno-1 siRNA dropped to only about 17% of the control level (FIG. 40). In these cells the levels of silencing of α-enolase were also quite high, reaching 14% of the α-enolase levels present in the control transfected cells 6 days post-transfection (FIG. 41).

Series [2] deals with MCF-7 and MDA-231 breast cancer cells. In words: BrdU incorporation cell proliferation assay, MCF-7 and MDA-231. In kind it is cell-based, human. Particulars: MCF-7 and MDA-231 cells. As to the method: A determinant of cell division and viability, pre-requisites for angiogenesis, was assayed by BrdU incorporation in two breast cancer cell lines.
In a further series the test system is HUVEC cells. In words: HUVEC capillary tube formation on Matrigel. It is filed as cell-based. As to the method: Transfected cells were then subjected to an angiogenesis assay to determine the effect of α-enolase on capillary tube formation. Briefly, Matrigel-coated 24-well culture plates (BD Biosciences, Rockville, Md.) were thawed at 4° C. overnight. The Matrigel was allowed to solidify for 1 hr at 37° C. α-enolase-1-directed siRNA or control siRNA silenced HUVEC cells were subsequently seeded onto the Matrigel-coated wells at a density of 40,000 cells per well in the absence of endothelial cell growth factors. Taxol was added to selected wells at 2 nM final concentration. The cells were allowed to differentiate overnight at 37° C., and were photographed after 5-6 and 16 hours using Q-Capture software under an Olympus fluorescence microscope.

Series [3] deals with A549 cells. In words: MTT cytotoxicity assay, A549 cells transfected with α-enolase siRNA. Particulars: A549 cells.
Experimental: Small interfering RNA transfected cells were seeded in triplicate into 96-well plates at 5×10^3 cells/well 48 hrs post-transfection. The cells were incubated for an additional 16-24 hrs before they were exposed to increasing concentrations of cytotoxic drugs. […] Appropriate dilutions were made in the respective media for each cell line. Following addition of drugs, incubation was continued for an additional 72 hrs. Twenty-five ml of MTT dye (5 mg/ml) were added into each well and the plate was further incubated at 37° C. for 4 hrs. The dye was solubilized with 10% Triton X-100, 0.01 N HCl and further incubated at 37° C. in the dark for 30 min. Cell viability was determined by measure of absorption at 570 nm in a Wallac multiwell plate reader (PerkinElmer, Inc., Boston, Mass.). The averages of triplicate wells were plotted using the Prism software (GraphPad Software, Inc., San Diego, Calif.).
To investigate if α-enolase is broadly involved in mediating drug resistance to microtubule targeting agents, non-small cell lung cancer cell lines A549 and H460, respectively, were transfected with α-enolase siRNA and enolase expression and viability were assessed.
Another series relates to H460 cells. In words: MTT cytotoxicity assay, H460 cells transfected with α-enolase siRNA. In kind it is cell-based, human. As to the method:
To establish the effectiveness of α-enolase silencing on other cancer cell types, H460 non-small cell lung cancer cells were challenged with a chemotherapeutic drug, MTT cytotoxicity assays were carried out and survival curves plotted as shown in FIG. 17.

The subject of a further series is MDA-435 cells. In words: Annexin-V FITC staining, MDA-435. In kind it is cell-based, human. As to the method:
as §1
(§2) Apoptotic cells were measured following incubation with siRNAs. This assay was performed to determine the number of cells that were now susceptible to chemotherapeutic drugs. Cells transfected with siRNA were seeded in Lab-Tek 16-well chamber slides (Electron Microscopy Sciences, Hatfield, Pa.) at 10^4 cells/well 48 hrs post-transfection. Apoptosis was determined 16 hours later by annexin-V staining using the Annexin-V FLUOS kit (Roche, Ltd., Basel, CH) following the manufacturer's instructions. Slides were observed under a fluorescence microscope and images were taken using an Olympus digital camera and the Q-Capture software (QImaging, Burnaby, BC, CA).

The next series concerns MCF-7/ADR xenografts. Description: MCF-7/ADR xenografts in nude mice. In kind it is in vivo. Particulars: 3 μg daily for 16 days, with chemotherapeutic drugs. As to the method: In further studies, the efficacy of a α-enolase-targeted therapeutic in treating an MDR mammary adenocarcinoma cells (MCF/AR) is assessed. Briefly, male […] nude mice 5-7 weeks old, weighing 18 g-22 g are used for the MCF-7/ADR xenografts. Mice receive a subcutaneous (s.c.) injection of the cells using 5×10^5 cells/inoculation under the shoulder. When the s.c. tumor is approximately 5.5 mm in size, mice are randomized into treatment groups of 4 including controls and groups receiving taxol or doxorubicin, alone (4 mg/kg), intraperitoneally (i.p.) every 2 days, α-enolase siRNA alone (3 μg daily for 16 days), or both taxol and α-enolase siRNA (3 μg daily for 16 days for each treatment). […] The animal's weight is measured every 4 days. Tumor growth starting on the first day of treatment is measured and the volume of the xenograft is monitored every 4 days. The mice are anaesthetized and sacrificed when the mean tumor weight is over 1 g in the control group. Tumor tissue is excised from the mice and its weight is measured. […]
In further studies, the efficacy of a α-enolase-targeted therapeutic in treating an mammary adenocarcinoma cells (MCF-7) is assessed. […] The animal's weight is measured every 4 days. Tumor growth starting on the first day of treatment is measured and the volume of the xenograft is monitored every 4 days. […] Tumor tissue is excised from the mice and its weight is measured. […]

For series [4], the system named is A549 cells. Description: Cell adhesion assay on collagen-coated plates. Particulars: A549 cells vs normal α-enolase levels. It is filed as cell-based, human. As to the method:
Cell adhesion assays were performed using an MTT-based cell assay, as described in FIGS. 8C and 8D. […] The attachment of cells to the surface of the well was counted and a proportion of cells that attached to the surface during the experimental period was determined.

For the next series, the system named is MCF-7 cells. Description: Annexin-V apoptosis assay, MCF-7. In kind it is cell-based, human. Particulars: MCF-7 cells vs control siRNA. As to the method:
as §2

“Also recorded” adds a separate entry of the source.

Take “α-enolase siRNA: siRNA duplex targeting human α-enolase mRNA; sense 5′-GGCUGUUGAGCACAUCAAUtt-3′ (SEQ ID NO: 1), antisense SEQ ID NO: 2; Ambion (antisense AUUGAUGUGCUCAACAGCC; bought from Ambion, sense has tt overhang, further chemistry not given here)”: the “decrease in DNA synthesis” value in series [1] stood at 50%. In series [2], the “decrease in cell proliferation rates (BrdU)” value is on record as 40-50%. Moreover, the “capillary tube formation on Matrigel” value with HUVEC cells is reported as “inhibited from forming capillary tubes”. In addition, the “cell viability after siRNA alone” value in the series with A549 cells [3] was “decreased the viability”. The “cell viability after siRNA alone” value in the series with H460 cells is recorded as “less viable”. Also, the “apoptosis by annexin-V FITC staining” value in the series with MDA-435 cells is recorded as “increase in apoptosis”. In the series on MCF-7/ADR xenografts, the “total cell number in tumors vs control siRNA” value was “lower” and the “tumor weight vs control siRNA” value is “smaller tumors by weight”. In addition, in the series on A549 cells [4], the “increase of cell adhesion to collagen-coated plates” value was determined as 40%. Also, in the series on MCF-7 cells, the “Annexin-V positive cells” value is listed as “Annexin-V positive cells were detected; also recorded: substantial amount of Annexin-V-positive cells”.
